≈ marks a conversion by molar mass, not a printed value.
What was measured:
[1] = system: P. aeruginosa UI-18; assay: MIC determination, P. aeruginosa UI-18; type: cell-based; details: Pseudomonas aeruginosa, UI18; wild-type; * = arithmetic mean of 2-6 MIC determinations; read-out: MIC (ug/mL) P. aeruginosa UI-18
In short: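 MIC by broth dilution following CLSI M7-A7 and M100-S18 guidelines, tested against wild-type P. aeruginosa UI-18.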

[2] = system: Staphylococcus aureus ATCC 29213; assay: MIC determination, S. aureus ATCC 29213; type: cell-based; details: ATCC29213, CLSI quality control reference strain, * = arithmetic mean of 2-6 MIC determinations, read-out: MIC (ug/mL) S. aureus ATCC 29213
In short: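 MIC was measured by dilution susceptibility testing following CLSI guidelines (M7-A7; M100-S18). The test organism is the CLSI quality-control reference strain.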

[3] = system: Klebsiella pneumoniae; assay: MIC determination, K. pneumoniae; type: cell-based; details: ciprofloxacin-resistant, ESBL-expressing clinical isolate, * = arithmetic mean of 2-6 MIC determinations, read-out: MIC (ug/mL) K. pneumoniae
In short: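 MIC determined by broth dilution per CLSI M7-A7 and M100-S18 guidelines. Strain: ciprofloxacin-resistant, ESBL-expressing clinical isolate of K. pneumoniae.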

[4] = system: Serratia marcescens; assay: MIC determination, S. marcescens; type: cell-based; details: multidrug-resistant clinical isolate, * = arithmetic mean of 2-6 MIC determinations, read-out: MIC (ug/mL) S. marcescens
Procedure: MIC determinations: The in vitro antibacterial activity of compounds described in the Examples was evaluated by minimum inhibitory concentration (MIC) testing according to Clinical and Laboratory Standards Institute (CLSI, formerly NCCLS) guidelines. See: Clinical and Laboratory Standards Institute. Methods for Dilution Antimicrobial Susceptibility Tests for Bacteria that Grow Aerobically; Approved Standard-Seventh Edition. CLSI document M7-A7 [ISBN 1-56238-587-9]. Clinical and Laboratory Standards Institute, 940 West Valley Road, Suite 1400, Wayne, Pa. 19087-1898 USA, 2006; also Clinical and Laboratory Standards Institute. Performance Standards for Antimicrobial Susceptibility Testing; Eighteenth Informational Supplement. CLSI document M100-S18 [ISBN1-56238-653-0]. Clinical and Laboratory Standards Institute.
The following bacterial strains were used:
Serratia marcescens: Multidrug-resistant clinical isolate.

[5] = system: Enterobacter aerogenes; assay: MIC determination, E. aerogenes; type: cell-based; details: Klebsiella aerogenes; quinolone-resistant, ESBL-expressing clinical isolate; * = arithmetic mean of 2-6 MIC determinations; read-out: MIC (ug/mL) E. aerogenes
In short: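 Clinical E. aerogenes isolate, quinolone-resistant and ESBL-expressing. MIC measured in vitro by dilution testing according to CLSI guidelines (M7-A7, M100-S18).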

[6] = system: Escherichia coli EC-1; assay: MIC determination, E. coli EC-1; type: cell-based; details: EC1, EC-1: VOGEL, * = arithmetic mean of 2-6 MIC determinations, read-out: MIC (ug/mL) E. coli EC-1
In short: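 Minimum inhibitory concentration against Escherichia coli EC-1 was determined in vitro by dilution susceptibility testing under CLSI M7-A7 and M100-S18 guidelines.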

[7] = system: P. aeruginosa PAO280; assay: MIC determination, P. aeruginosa PAO280; type: cell-based; details: Pseudomonas aeruginosa, PAO280, read-out: MIC (ug/mL) P. aeruginosa PAO280
In short: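 Broth dilution MIC per CLSI M7-A7/M100-S18 guidelines. Strain PAO280 lacks efflux pumps MexAB-oprM, MexXY and MexZ.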

[8] = system: Acinetobacter baumanii/haemolyticus; assay: MIC determination, A. baumanii/haemolyticus; type: cell-based; details: Acinetobacter baumannii; multidrug-resistant clinical isolate; * = arithmetic mean of 2-6 MIC determinations; read-out: MIC (ug/mL) A. baumanii/haemolyticus
In short: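 MICs were determined by CLSI broth dilution (M7-A7, M100-S18) against a multidrug-resistant clinical isolate of Acinetobacter baumanii/haemolyticus.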

[9] = biological target: T1, Pseudomonas aeruginosa LpxC enzyme (Pseudomonas aeruginosa, UniProt P47205); assay: IC50 assay, LpxC enzyme from P. aeruginosa; type: biochemical; details: 0.5 nM enzyme, 25° C., pH 8.0, 20 min; ** = average of 2-8 assays
T1 construct: made in house; host or cells: E. coli
T1 sequence (P47205 1-303): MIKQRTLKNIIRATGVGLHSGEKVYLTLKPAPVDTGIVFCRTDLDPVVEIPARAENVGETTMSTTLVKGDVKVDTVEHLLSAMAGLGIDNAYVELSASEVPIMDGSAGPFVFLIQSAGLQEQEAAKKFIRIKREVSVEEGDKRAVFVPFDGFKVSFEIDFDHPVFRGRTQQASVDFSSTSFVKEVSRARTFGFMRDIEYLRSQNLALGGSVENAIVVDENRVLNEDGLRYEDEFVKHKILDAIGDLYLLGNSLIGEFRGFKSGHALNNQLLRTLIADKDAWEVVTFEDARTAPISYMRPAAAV
In short: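 P. aeruginosa LpxC (0.5 nM, expressed in E. coli) reacted with 0.5 uM ³H-acetyl-labelled UDP-3-O-(R-3-hydroxydecanoyl)-GlcNAc in 50 mM sodium phosphate pH 8.0 with 1 mg/ml BSA at 25 °C for 20 min. Charcoal stopped the reaction, and filtrate radioactivity was counted by scintillation after no-enzyme background subtraction.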

| Structure (SMILES) | MIC [1] | MIC [2] | MIC [3] | MIC [4] | MIC [5] | MIC [6] | MIC [7] | MIC [8] | IC50 [9] |
| --- | --- | --- | --- | --- | --- | --- | --- | --- | --- |
| CC[C@H](O)[C@](C)(OCc1ccc(-c2ccccc2)cc1)C(=O)NO [Example 1, (2S,3S)-2-(biphenyl-4-ylmethoxy)-N,3-dihydroxy-2-methylpentanamide] | > 64 µg/mL | > 64 µg/mL | > 64 µg/mL | > 64 µg/mL | > 64 µg/mL | > 64 µg/mL | 3 µg/mL (≈ 9.11 µM) | > 64 µg/mL | 0.00844 µM |
| C[C@H](O)[C@](C)(OCc1ccc(-c2ccccc2)cc1)C(=O)NO [Example 2a, (2S,3S)-2-(biphenyl-4-ylmethoxy)-N,3-dihydroxy-2-methylbutanamide] | 32 µg/mL (≈ 101 µM) | > 64 µg/mL | > 64 µg/mL | > 64 µg/mL | > 64 µg/mL | > 64 µg/mL | 0.5 µg/mL (≈ 1.59 µM) | > 64 µg/mL | 0.00299 µM |
| C[C@@H](O)[C@](C)(OCc1ccc(-c2ccccc2)cc1)C(=O)NO [Example 2b, (2S,3R)-2-(biphenyl-4-ylmethoxy)-N,3-dihydroxy-2-methylbutanamide] | 64 µg/mL (≈ 203 µM) | > 64 µg/mL | > 64 µg/mL | > 64 µg/mL | > 64 µg/mL | > 64 µg/mL | 0.75 µg/mL (≈ 2.38 µM) | > 64 µg/mL | 0.00435 µM |
| CC(C)[C@H](O)[C@](C)(OCc1ccc(-c2ccccc2)cc1)C(=O)NO [Example 3, (2S,3S)-2-(biphenyl-4-ylmethoxy)-N,3-dihydroxy-2,4-dimethylpentanamide] | > 64 µg/mL | > 64 µg/mL | > 64 µg/mL | > 64 µg/mL | > 64 µg/mL | > 64 µg/mL | 32 µg/mL (≈ 93.2 µM) | > 64 µg/mL | 0.0716 µM |
| CCCC[C@H](O)[C@](C)(OCc1ccc(-c2ccccc2)cc1)C(=O)NO [Example 5, (2S,3S)-2-(biphenyl-4-ylmethoxy)-N,3-dihydroxy-2-methylheptanamide] | > 64 µg/mL | 64 µg/mL (≈ 179 µM) | > 64 µg/mL | > 64 µg/mL | > 64 µg/mL | > 64 µg/mL | 16 µg/mL (≈ 44.8 µM) | > 64 µg/mL | 0.0878 µM |
| CC(C)C[C@H](O)[C@](C)(OCc1ccc(-c2ccccc2)cc1)C(=O)NO [Example 6, (2S,3S)-2-(biphenyl-4-ylmethoxy)-N,3-dihydroxy-2,5-dimethylhexanamide] | > 64 µg/mL | 64 µg/mL (≈ 179 µM) | > 64 µg/mL | > 64 µg/mL | > 64 µg/mL | > 64 µg/mL | 64 µg/mL (≈ 179 µM) | > 64 µg/mL | 0.16 µM |
| C[C@@](OCc1ccc(-c2ccccc2)cc1)(C(=O)NO)[C@@H](O)CC(F)(F)F [Example 7, (2S,3S)-2-(biphenyl-4-ylmethoxy)-N,3-dihydroxy-2-methyl-5,5,5-trifluoropentanamide] | > 64 µg/mL | 64 µg/mL (≈ 167 µM) | > 64 µg/mL | > 64 µg/mL | > 64 µg/mL | > 64 µg/mL | 2 µg/mL (≈ 5.22 µM) | > 64 µg/mL | 0.00953 µM |
| CCOCC[C@H](O)[C@](C)(OCc1ccc(-c2ccccc2)cc1)C(=O)NO [Example 8, (2S,3S)-2-(biphenyl-4-ylmethoxy)-5-ethoxy-N,3-dihydroxy-2-methylpentanamide] | > 64 µg/mL | > 64 µg/mL | > 64 µg/mL | > 64 µg/mL | > 64 µg/mL | > 64 µg/mL | 8 µg/mL (≈ 21.4 µM) | > 64 µg/mL | 0.0284 µM |
| C[C@@](OCc1ccc(-c2ccccc2)cc1)(C(=O)NO)[C@@H](O)c1c[nH]cn1 [Example 9, (2S,3S)-2-(biphenyl-4-ylmethoxy)-N,3-dihydroxy-3-(1H-imidazol-4-yl)-2-methylpropanamide] | 8 µg/mL (≈ 21.8 µM) | > 64 µg/mL | > 64 µg/mL | > 64 µg/mL | > 64 µg/mL | > 64 µg/mL | 0.125 µg/mL (≈ 0.34 µM) | > 64 µg/mL | 0.00084 µM |
| COCc1cc(CNC(=O)C(C)(OCc2ccc(-c3ccccc3)cc2)C(=O)NO)no1 (stereo not drawn) [Example 85, 2-(biphenyl-4-ylmethoxy)-N-hydroxy-N′-{[5-(methoxymethyl)isoxazol-3-yl]methyl}-2-methylmalonamide] | 8 µg/mL (≈ 18.2 µM) | 64 µg/mL (≈ 146 µM) | 32 µg/mL (≈ 72.8 µM) | – | > 64 µg/mL | 16 µg/mL (≈ 36.4 µM) | 0.125 µg/mL (≈ 0.284 µM) | 64 µg/mL (≈ 146 µM) | 0.00159 µM |
| Cc1cc(-c2ccc(COC(C)(C(=O)NO)C(=O)NCc3cc(C)on3)cc2)ccn1 (stereo not drawn) [Example 86, N-hydroxy-2-methyl-N′-[(5-methylisoxazol-3-yl)methyl]-2-{[4-(2-methylpyridin-4-yl)benzyl]oxy}malonamide] | 16 µg/mL (≈ 37.7 µM) | > 64 µg/mL | > 64 µg/mL | – | > 64 µg/mL | > 64 µg/mL | 0.25 µg/mL (≈ 0.589 µM) | > 64 µg/mL | 0.00681 µM |
| Cc1ccnc(-c2ccc(COC(C)(C(=O)NO)C(=O)NCc3cc(C)on3)cc2)c1 (stereo not drawn) [Example 87, N-hydroxy-2-methyl-N′-[(5-methylisoxazol-3-yl)methyl]-2-{[4-(4-methylpyridin-2-yl)benzyl]oxy}malonamide] | 32 µg/mL (≈ 75.4 µM) | > 64 µg/mL | > 64 µg/mL | – | > 64 µg/mL | > 64 µg/mL | 0.25 µg/mL (≈ 0.589 µM) | > 64 µg/mL | 0.0023 µM |
| Cc1cc(CNC(=O)C(C)(OCc2ccc(-c3ccc(F)cn3)cc2)C(=O)NO)no1 (stereo not drawn) [Example 88, 2-{[4-(5-fluoropyridin-2-yl)benzyl]oxy}-N-hydroxy-2-methyl-N′-[(5-methylisoxazol-3-yl)methyl]malonamide] | 64 µg/mL (≈ 149 µM) | > 64 µg/mL | > 64 µg/mL | – | > 64 µg/mL | > 64 µg/mL | 0.5 µg/mL (≈ 1.17 µM) | > 64 µg/mL | 0.00698 µM |
| Cc1cccc(-c2ccc(COC(C)(C(=O)NO)C(=O)NCc3cc(C)on3)cc2)n1 (stereo not drawn) [Example 89, N-hydroxy-2-methyl-N′-[(5-methylisoxazol-3-yl)methyl]-2-{[4-(6-methylpyridin-2-yl)benzyl]oxy}malonamide] | > 64 µg/mL | > 64 µg/mL | > 64 µg/mL | – | > 64 µg/mL | > 64 µg/mL | 1 µg/mL (≈ 2.36 µM) | > 64 µg/mL | 0.0135 µM |
| Cc1cc(CNC(=O)C(C)(OCc2ccc(-c3cnccn3)cc2)C(=O)NO)no1 (stereo not drawn) [Example 90, N-hydroxy-2-methyl-N′-[(5-methylisoxazol-3-yl)methyl]-2-[(4-pyrazin-2-ylbenzyl)oxy]malonamide] | > 64 µg/mL | > 64 µg/mL | > 64 µg/mL | – | > 64 µg/mL | > 64 µg/mL | 4 µg/mL (≈ 9.72 µM) | > 64 µg/mL | 0.147 µM |

Source: patent publication US9340493B2, “Hydroxamic acid derivatives useful as antibacterial agents” (Pfizer Inc., priority 2008, dated 2016)
